# Test results published in ChEMBL document CHEMBL1201862, “PubChem BioAssay data set” (2004).
# Activity calls are given as the source filed them.
# Tests used:
# Bcl-2-like protein 10 = target: T1, Bcl-2-like protein 10 (Homo sapiens, UniProt Q9HD36); experiment: displacers of TR3 peptide from Bcl-B, primary screen, selectivity assay for Bfl-1 inhibitor project, biochemical, fluorescence polarization, FITC-TR3 peptide (AID 748);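 also: fluorescence polarization from a fluorescein-labelled TR3 peptide binding purified Bcl-B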
# T1 sequence (Q9HD36 whole entry): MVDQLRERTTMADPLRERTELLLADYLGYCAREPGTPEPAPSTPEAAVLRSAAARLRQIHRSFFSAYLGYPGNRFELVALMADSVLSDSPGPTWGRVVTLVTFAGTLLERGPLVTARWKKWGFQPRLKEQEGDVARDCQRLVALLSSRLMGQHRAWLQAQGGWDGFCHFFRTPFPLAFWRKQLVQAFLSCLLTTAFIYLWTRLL
# Streptokinase A = target: T2, Streptokinase A (Streptococcus pyogenes serotype M1, UniProt P10520); experiment: S. pyogenes streptokinase expression inhibitors, potency, dose response, plasminogen activation absorbance, OD405 (AID 1914); type: functional, Streptococcus pyogenes M1 GAS;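 also: secreted streptokinase activity via plasminogen activation per viability signal from cell pellet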
# T2 sequence (P10520 whole entry): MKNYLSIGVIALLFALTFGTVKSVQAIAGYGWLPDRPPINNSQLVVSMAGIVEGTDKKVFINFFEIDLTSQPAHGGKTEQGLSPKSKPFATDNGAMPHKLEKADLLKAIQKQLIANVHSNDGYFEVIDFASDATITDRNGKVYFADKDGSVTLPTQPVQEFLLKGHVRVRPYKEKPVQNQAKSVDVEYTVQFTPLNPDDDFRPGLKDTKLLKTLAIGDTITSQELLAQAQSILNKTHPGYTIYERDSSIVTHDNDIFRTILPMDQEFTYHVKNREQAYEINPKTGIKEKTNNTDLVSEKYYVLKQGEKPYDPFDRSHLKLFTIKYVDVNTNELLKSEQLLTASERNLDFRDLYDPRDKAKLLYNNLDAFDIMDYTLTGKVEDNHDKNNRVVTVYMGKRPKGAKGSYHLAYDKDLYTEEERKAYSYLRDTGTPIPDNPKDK
# Beta-galactosidase = Beta-galactosidase (Escherichia coli, UniProt Q8VNN2); experiment: beta-galactosidase enzyme inhibitors and activators, dose response, artefact control for CCR6 antagonist project, biochemical, E. coli enzyme, set 3 (AID 504712); type: functional
# [1] = system: Streptococcus sp. 'group A'; experiment: growth inhibition of control SK(-) GAS strain, dose response, counter-screen for streptokinase expression inhibitor project, luminescence, kanamycin, BacTiterGlo, confirmation (AID 1900); type: functional, organism-based
# Streptococcus = experiment: Group A Streptococcus viability loss, dose response, counter-screen for streptokinase expression inhibitor project, luminescence, BacTiterGlo (AID 1915); type: functional, organism-based;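 also: potency for reduction of bacterial viability or growth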
# [2] = Vero E6 cell cytotoxicity, dose response, cytotoxicity control for non-replicating M. tuberculosis project, secondary assay (AID 492998); type: functional, VeroE6; settings: Vero C1008
# cells = type: functional
# [3] = THP-1 cell cytotoxicity, dose response, cytotoxicity control for non-replicating M. tuberculosis project (AID 489025); type: functional
# [4] = target: T3, Short transient receptor potential channel 4 (Mus musculus, UniProt Q9QUQ5); experiment: mouse TRPC4 channel inhibitors, dose response, cell-based, HEK293 TRPC4/mu-opioid, Fluo-4 calcium (AID 434942); type: functional;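 also: potency of inhibitors blocking the TRPC4 calcium response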
# T3 sequence (Q9QUQ5 whole entry): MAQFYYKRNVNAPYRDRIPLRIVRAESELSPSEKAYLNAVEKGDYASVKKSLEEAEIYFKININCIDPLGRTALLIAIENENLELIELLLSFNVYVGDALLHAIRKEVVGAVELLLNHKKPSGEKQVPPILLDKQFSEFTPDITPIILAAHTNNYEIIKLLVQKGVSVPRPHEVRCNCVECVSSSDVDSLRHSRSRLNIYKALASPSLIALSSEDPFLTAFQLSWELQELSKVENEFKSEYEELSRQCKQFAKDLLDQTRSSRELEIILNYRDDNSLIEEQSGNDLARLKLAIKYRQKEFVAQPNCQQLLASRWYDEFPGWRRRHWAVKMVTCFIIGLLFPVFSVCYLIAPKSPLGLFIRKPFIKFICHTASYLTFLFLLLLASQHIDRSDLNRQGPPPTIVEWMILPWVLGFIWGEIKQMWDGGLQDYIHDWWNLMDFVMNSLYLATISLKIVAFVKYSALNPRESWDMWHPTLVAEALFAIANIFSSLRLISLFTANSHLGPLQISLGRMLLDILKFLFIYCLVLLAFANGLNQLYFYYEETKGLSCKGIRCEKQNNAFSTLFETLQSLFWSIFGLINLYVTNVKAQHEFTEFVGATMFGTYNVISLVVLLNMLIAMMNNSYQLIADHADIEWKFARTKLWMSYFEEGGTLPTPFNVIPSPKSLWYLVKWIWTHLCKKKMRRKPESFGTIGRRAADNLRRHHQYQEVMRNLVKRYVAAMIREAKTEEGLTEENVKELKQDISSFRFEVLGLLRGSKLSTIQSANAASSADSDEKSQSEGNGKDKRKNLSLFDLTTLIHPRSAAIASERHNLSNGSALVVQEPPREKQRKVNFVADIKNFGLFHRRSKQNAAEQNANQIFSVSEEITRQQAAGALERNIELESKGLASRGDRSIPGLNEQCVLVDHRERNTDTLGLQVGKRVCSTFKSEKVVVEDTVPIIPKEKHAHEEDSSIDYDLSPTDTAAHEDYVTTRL
# [5] = HepG2 cell cytotoxicity, dose response, cytotoxicity control for non-replicating M. tuberculosis project (AID 489018); type: functional; settings: Mycobacterium tuberculosis
# Trypsin = Trypsin (Sus scrofa, UniProt P00761); experiment: porcine trypsin inhibitors, dose response, selectivity assay for Rce1 protease inhibitor project, biochemical, quenched peptide fluorescence, cherry-pick (AID 488789)
# [6] = cytotoxicity toward NIH3T3 fibroblasts, dose response, counter-screen, cell-based, ATP luminescence, mouse fibroblasts (AID 2010); type: functional;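 also: cells exposed to compound for about 90 hours before reading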
# [7] = inhibitors of intracellular T. cruzi replication, confirmation, NIH3T3 host cells, beta-gal luminescence (AID 2044); type: functional, cell-based;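 also: intracellular parasites grown in NIH/3T3 mouse fibroblasts as host cells; luminescent beta-galactosidase reporter signal from transgenic T. cruzi replicating inside host cells; inhibitors lower the luminescence signal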
# CAAX prenyl protease 2 = CAAX prenyl protease 2 (Saccharomyces cerevisiae S288c, UniProt Q03530); type: biochemical
# H4 = experiment: Luminescence Cell-Based Dose Response HTS to Identify Activators of 5'UTR Stem-Loop Driven Prion Protein mRNA Translation in H4 Neuroglioblastoma Cells. [Related pubchem assays: 1829 (Project Summary), 1814 (Primary HTS)]; type: functional; settings: Homo sapiens
# [8] = NIH-3T3 fibroblast cytotoxicity, dose response, cytotoxicity control, cell-based, fluorescence, Alamar Blue, secondary assay (AID 2327); type: functional;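 also: NIH-3T3 mouse fibroblasts cultured with fluconazole at 8 µg/mL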
# [9] = Luminescence Cell-Based Dose Response HTS to Identify Activators of Luciferase Translation or Activity in H4 […] Cells. [Related pubchem assays: 1829 (Project Summary), 1814 (Primary HTS)]; type: functional
# Cytochrome P450 3A4 = Cytochrome P450 3A4 (Homo sapiens, UniProt P08684);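 also: CYP3A4 tested as one member of a cytochrome P450 panel screen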
# Cytochrome P450 2C9 = Cytochrome P450 2C9 (Homo sapiens, UniProt P11712)
# [10] = target: T3, Short transient receptor potential channel 4; experiment: mouse TRPC4 channel activators, dose response, cell-based, HEK293 TRPC4/mu-opioid, Fluo-4 calcium (AID 434937); type: functional
# Cytochrome P450 2C19 = Cytochrome P450 2C19 (Homo sapiens, UniProt P33261); experiment: Cytochrome panel assay with activity outcomes. Panel member name: p450-cyp2c19 Compounds with AC50 equal or less than 10 uM are considered active; type: functional; settings: read-out: AC50
# [11] = Luminescence Cell-Based Dose Confirmation HTS to Identify Activators of 5'UTR Stem-Loop Driven Alpha-Synuclein mRNA Translation in H4 Neuroglioblastoma Cells. [Related pubchem assays: 1829 (Project Summary), 1814 (Primary HTS)]; type: functional
# Sequence of Beta-galactosidase (Q8VNN2 whole entry): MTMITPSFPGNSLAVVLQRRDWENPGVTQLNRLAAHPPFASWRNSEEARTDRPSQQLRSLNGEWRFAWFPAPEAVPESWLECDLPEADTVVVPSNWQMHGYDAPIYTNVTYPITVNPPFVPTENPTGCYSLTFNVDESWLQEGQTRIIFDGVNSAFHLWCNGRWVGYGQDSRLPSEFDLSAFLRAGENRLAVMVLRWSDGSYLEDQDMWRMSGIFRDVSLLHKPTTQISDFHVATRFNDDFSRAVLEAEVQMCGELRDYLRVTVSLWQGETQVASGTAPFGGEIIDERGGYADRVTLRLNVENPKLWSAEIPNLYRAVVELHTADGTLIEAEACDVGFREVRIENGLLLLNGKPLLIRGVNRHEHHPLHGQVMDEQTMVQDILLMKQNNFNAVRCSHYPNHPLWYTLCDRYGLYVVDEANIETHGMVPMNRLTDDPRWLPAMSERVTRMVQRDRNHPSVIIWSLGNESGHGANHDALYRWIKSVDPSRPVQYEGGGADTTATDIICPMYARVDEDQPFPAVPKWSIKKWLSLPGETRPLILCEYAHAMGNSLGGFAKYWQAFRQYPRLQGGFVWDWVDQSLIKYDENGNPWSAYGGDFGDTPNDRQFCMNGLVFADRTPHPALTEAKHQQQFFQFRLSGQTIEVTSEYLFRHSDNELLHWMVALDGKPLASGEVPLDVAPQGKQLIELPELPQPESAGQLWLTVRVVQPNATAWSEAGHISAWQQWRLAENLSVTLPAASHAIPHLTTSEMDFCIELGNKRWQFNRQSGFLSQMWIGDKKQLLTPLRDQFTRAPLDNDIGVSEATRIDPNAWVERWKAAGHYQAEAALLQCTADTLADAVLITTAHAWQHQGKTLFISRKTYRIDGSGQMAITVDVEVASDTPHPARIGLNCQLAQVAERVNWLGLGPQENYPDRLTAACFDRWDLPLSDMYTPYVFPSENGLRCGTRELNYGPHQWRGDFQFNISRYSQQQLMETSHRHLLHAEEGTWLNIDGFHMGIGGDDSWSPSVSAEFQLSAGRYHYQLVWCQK
# Sequence of Cytochrome P450 3A4 (P08684 whole entry): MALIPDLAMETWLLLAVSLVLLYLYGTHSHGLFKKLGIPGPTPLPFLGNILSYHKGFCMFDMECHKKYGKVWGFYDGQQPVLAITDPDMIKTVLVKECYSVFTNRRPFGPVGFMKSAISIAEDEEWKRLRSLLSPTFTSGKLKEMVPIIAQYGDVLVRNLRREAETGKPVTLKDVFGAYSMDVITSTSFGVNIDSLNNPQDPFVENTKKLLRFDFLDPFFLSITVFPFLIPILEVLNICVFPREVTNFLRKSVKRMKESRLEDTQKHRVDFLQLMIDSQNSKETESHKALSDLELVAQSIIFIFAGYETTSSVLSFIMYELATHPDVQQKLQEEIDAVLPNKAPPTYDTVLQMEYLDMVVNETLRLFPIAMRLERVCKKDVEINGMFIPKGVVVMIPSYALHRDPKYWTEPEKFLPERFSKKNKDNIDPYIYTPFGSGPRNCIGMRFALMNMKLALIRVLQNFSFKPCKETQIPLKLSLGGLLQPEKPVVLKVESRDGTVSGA
# Sequence of Trypsin (P00761 whole entry): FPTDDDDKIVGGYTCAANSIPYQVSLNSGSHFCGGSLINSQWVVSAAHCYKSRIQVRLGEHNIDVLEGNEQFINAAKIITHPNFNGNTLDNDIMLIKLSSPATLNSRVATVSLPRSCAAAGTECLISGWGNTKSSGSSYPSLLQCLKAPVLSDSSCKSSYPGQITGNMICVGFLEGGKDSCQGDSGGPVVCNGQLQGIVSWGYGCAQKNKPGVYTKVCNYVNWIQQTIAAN
# Sequence of CAAX prenyl protease 2 (Q03530 whole entry): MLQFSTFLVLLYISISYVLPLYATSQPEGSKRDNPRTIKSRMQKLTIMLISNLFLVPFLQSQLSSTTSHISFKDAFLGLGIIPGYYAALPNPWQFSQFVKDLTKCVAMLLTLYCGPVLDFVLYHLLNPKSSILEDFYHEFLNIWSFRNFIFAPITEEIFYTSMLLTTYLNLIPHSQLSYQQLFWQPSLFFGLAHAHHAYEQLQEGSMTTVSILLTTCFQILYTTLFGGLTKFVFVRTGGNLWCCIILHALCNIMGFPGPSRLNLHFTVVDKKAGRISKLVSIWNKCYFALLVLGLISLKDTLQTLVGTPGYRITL
# Sequence of Cytochrome P450 2C19 (P33261 whole entry): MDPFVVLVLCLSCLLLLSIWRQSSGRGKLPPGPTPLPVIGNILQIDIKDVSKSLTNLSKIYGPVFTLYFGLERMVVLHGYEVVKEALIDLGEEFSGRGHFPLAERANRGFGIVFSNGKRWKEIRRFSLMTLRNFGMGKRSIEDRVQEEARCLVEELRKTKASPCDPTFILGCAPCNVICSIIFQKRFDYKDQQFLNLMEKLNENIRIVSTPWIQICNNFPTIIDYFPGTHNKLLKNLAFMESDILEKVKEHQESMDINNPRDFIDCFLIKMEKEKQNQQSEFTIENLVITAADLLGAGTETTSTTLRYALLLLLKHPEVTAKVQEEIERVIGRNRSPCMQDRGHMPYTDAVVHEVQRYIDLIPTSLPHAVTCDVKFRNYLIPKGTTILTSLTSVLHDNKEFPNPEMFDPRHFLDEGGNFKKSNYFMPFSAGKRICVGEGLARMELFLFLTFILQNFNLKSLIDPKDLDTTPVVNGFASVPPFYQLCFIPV
# Sequence of Cytochrome P450 2C9 (P11712 whole entry): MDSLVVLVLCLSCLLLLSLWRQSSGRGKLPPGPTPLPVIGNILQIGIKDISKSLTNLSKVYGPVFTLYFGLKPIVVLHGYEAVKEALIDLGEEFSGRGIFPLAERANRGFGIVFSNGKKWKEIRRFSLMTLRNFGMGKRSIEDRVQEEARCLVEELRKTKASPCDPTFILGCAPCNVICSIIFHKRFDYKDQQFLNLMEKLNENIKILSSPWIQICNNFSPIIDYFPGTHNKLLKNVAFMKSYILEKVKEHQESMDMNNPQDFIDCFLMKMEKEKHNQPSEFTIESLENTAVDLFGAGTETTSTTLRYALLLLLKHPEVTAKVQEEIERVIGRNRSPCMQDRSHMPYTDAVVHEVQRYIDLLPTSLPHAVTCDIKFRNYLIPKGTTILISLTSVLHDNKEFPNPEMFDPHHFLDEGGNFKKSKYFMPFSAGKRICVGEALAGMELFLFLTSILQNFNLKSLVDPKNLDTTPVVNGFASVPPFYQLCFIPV
structure (smiles),measurement,setting,value
O=S(=O)(c1ccccc1)N(CC(O)CN1CCCCC1)c1ccccc1 (configuration not stated),IC50,Bcl-2-like protein 10,> 100 µM (inactive)
COC(=O)c1[nH]c2ccc(C)cc2c1NC(=O)CCN1CCN(Cc2ccc3c(c2)OCO3)CC1,IC50,Bcl-2-like protein 10,> 100 µM (inactive)
CCCCCCC(=O)NN/C=C1\C(=O)NC(=S)N(C(C)CC)C1=O (configuration not stated),EC50,Streptokinase A,> 150 µM (not active)
same,IC50,Beta-galactosidase,> 66.6 µM (inactive)
same,EC50,[1],5.17 µM (active)
same,EC50,Streptococcus,9.29 µM (active)
CN1CCN(c2ccc(NC(=O)c3ccc(-c4ccc(Cl)cc4)o3)cc2)CC1,CC50,[2],17.2 µM (active)
same,IC50,cells,3.04 µM (active)
same,CC50,[3],17.6 µM (active)
same,EC50,[4],0.0667 µM (active)
same,CC50,[5],8.12 µM (active)
O=C(CSc1nc2ccccc2s1)N1N=C(c2cccs2)CC1c1ccc(F)cc1 (configuration not stated),AC50,Trypsin,24.5 µM (active)
same,EC50,[6],> 60 µM (not active)
same,EC50,[7],1.06 µM (active)
same,AC50,CAAX prenyl protease 2,12.1 µM (active)
Cc1cc(C)n(-c2nc(SCCN(C)C)c3c4c(sc3n2)CCCC4)n1,EC50,H4,> 120 µM (not active)
same,CC50,[2],6.93 µM (active)
same,EC50,[8],56 µM (active)
same,IC50,cells,9.58 µM (active)
same,EC50,[9],> 120 µM (not active)
same,AC50,Cytochrome P450 3A4,17.8 µM (inconclusive)
same,CC50,[3],13.5 µM (active)
same,AC50,Cytochrome P450 2C9,15.8 µM (inconclusive)
same,CC50,[5],19.4 µM (active)
same,EC50,[10],1.88 µM (active)
same,AC50,Cytochrome P450 2C19,31.6 µM (inconclusive)
same,EC50,[11],> 120 µM (not active)
